# Experimental data from patent US20250320501A1, “PALMITOYLATION OF THE ALTERNATIVE AMINO TERMINUS OF THE BTK-C ISOFORM CONTROLS SUBCELLULAR DISTRIBUTION AND SIGNALING” (The Research Foundation for the State University of New York, priority 2022, published 2025).
# What was measured:
# BTK-C [1] = biological target: T1, BTK-C (Homo sapiens, UniProt Q06187, M35A); experiment: Acyl incorporation assay (click chemistry after Flag immunoprecipitation), BTK-C; format: cell-based; conditions: HEK293 cells co-expressing zDHHC5, 100 μM analogue for 4 h
# T1 construct: cells expressing Flag-tagged, full-length versions of BTK-A and BTK-C; expressed in transfected cells; host or cells: HEK293
# T1 sequence (Q06187 1-693 isoform Q06187-2 M35A): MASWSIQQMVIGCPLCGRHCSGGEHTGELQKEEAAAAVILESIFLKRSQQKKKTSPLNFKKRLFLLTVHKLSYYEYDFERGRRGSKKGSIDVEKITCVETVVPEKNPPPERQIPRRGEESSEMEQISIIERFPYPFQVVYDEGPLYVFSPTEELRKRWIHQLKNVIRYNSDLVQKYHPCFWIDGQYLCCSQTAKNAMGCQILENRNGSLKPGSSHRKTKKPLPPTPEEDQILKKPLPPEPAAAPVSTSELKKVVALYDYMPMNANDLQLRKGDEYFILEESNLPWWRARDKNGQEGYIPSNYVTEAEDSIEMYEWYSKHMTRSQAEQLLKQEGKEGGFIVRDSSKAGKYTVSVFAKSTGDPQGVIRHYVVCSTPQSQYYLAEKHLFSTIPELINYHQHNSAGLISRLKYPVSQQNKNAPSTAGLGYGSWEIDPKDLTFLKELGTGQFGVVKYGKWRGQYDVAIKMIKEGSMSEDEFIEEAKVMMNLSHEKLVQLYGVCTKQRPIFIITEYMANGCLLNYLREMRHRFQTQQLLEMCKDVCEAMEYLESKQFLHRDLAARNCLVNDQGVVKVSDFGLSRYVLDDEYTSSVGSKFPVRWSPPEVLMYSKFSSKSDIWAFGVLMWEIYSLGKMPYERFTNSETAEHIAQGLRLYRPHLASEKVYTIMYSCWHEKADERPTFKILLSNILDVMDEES
# Method: (§1) FIG. 2A-D presents the BTK-C isoform palmitoylated: FIG. 2A presents a diagram of BTK isoform C-terminal Flag-tagged constructs: FIG. 2B presents an expression of Flag-tagged constructs in MDA-MB-231 cells; FIG. 2C presents detection scheme for acylated BTK isoforms. Cells were incubated with 17-ODYA. Flag immunoprecipitates were reacted with azide-activated biotinylation reagent and detected through reaction with streptavidin-linked horseradish peroxidase; and FIG. 2D presents HEK293 cells were transfected with 1 μg of BTK-A, BTK-C, or BTK-C C13A, C16A and 2 μg of a plasmid expressing zDHHC5. 24 h after transfection cells were incubated for 4 h with 100 μM palmitic acid alkyne (17-ODYA). Cell lysate supernatants were immunoprecipitated with Anti-Flag M2 affinity gel (Sigma) at 4° C. overnight, subjected to click chemistry with 20 μM biotin picolyl azide for 30 m at room temperature before electrophoresis and blotting.
# Reporter construction and viral transgenesis: GFP fusion constructs were generated using a BTK pleckstrin homology domain fusion protein vector, PH-Btk-GFP (Addgene Plasmid #51463). BTK constructs (BTK-A R28C; BTK-C; BTK-C R28C; BTK-C C13A, C16A; BTK-C C13A,C16A,R28C) were generated in this plasmid using QuikChange site directed mutagenesis. The exon 1C sequence (FIG. 1B) was subcloned from the original cDNA isolate. To prevent internal translational initiation at the BTK-A ATG, this codon was changed to Ala in all BTK-C constructs. Production of either the 77 kDa BTK-A isoform or the 65 kDa p65BTK was not observed for BTK-C constructs. GFP reporters were subcloned into MARXIVpuro REV plasmid (22). Full-length mutant proteins were produced by subcloning into a BTK gene with a C-terminal Flag tag expressed from a MARXIVpuro REV vector. DNA sequence was confirmed by DNA sequence analysis for all constructs. ϕNX-Ampho cells were transfected with Flag-tagged versions of BTK as described. Empty vector was used as a control. A lentivirus-born shRNA targeting the chromosomal BTK 3′UTR TRCN0000000358 (Sigma-Aldrich, Saint Louis, MO) was used to silence endogenous BTK isoform expression such that each line predominantly expresses the wild-type or mutant version of the intended isoform. BTK acylation: HEK293 cells plated on 6 wells plates were transfected using X-tremeGENE HP transfection reagent (Sigma-Aldrich, Saint Louis, MO) with 1 μg of BTK-C, BTK-A, or BTK-C C13A, C16A with 2 μg of zDHHC5 plasmid. 24 hours after transfection, cells were incubated with 100 μM of palmitic acid alkyne (in DMEM with 1 mg/ml defatted BSA) for 4 h at 37° C. Cells were washed twice in PBS, then lysed on ice in 50 mM Tris HCl, pH 7.4 with 150 mM NaCl, 1 mM EDTA, 1% TRITON X-100 and protein inhibitors. […]
# breast cells = experiment: Toxicity of PI3K inhibition in breast cells; format: cell-based; conditions: breast cells (not shown)
# Excerpt: Regulation of BTK-C localization and activity by PIP3 levels: Activation of BTK-A in B cells has been extensively studied. Adsorption of BTK-A to the B cell plasma membrane is driven by binding to PIP3 which opens the BTK monomer conformation allowing dimerization, auto-activation (Y223 phosphorylation) and transactivation (Y551 phosphorylation). […] Mutation of the analogous arginine in BTK-C(R62 in BTK-C) causes it to fail to localize to the membrane (FIG. 3S). […] For example, MDA-MB-231 cells which are PTEN^+ display less plasma membrane staining when compared to SUM149 cells which are PTEN. […] This PIP3-dependent activation may occur through BTK-C dimer formation through juxtaposed membrane-bound PH domains as occurs with the BTK-A. Using an assay developed by Chung et al., co-transfecting BTK-C with the BTK-C-GFP construct which contains the PH domain but is missing the kinase domain reduces Y551 phosphorylation compared with vector or BTK-C only (FIG. 4D).
# [2] = tested on: LNCaP C42b prostate cancer cell line; experiment: Toxicity of PI3K inhibition in LNCaP C42b cells; format: cell-based; conditions: PTEN- LNCaP C42b prostate cancer cell line, compared with breast cells
# BTK-A and BTK-C = experiment: Activating phosphorylation of BTK isoforms after stimulation with other ligands; format: cell-based, human; conditions: ligand stimulation (not shown)
# BTK-C [3] = experiment: Activating tyrosine phosphorylation of BTK-C after insulin stimulation (immunoblot densitometry); format: cell-based, human; conditions: transfected HEK293 cells
# Method: (§2) FIG. 5A-D present activating tyrosine phosphorylation of the BTK isoforms. BTK-A, BTK-C and BTK-C C13, C16 mutant constructs were transfected into HEK293 cell and after 24 hours stimulated with insulin. Values represent fold tyrosine-phosphorylated signal normalized to total BTK-A or BTK-C(anti-Flag) determined by densitometry; FIG. 5B presents phosphorylation of the BTK target tyrosine 759 of PLCγ2 in transfected HEK293 cells; FIG. 5C presents BTK-C expression increases proliferation rate of MDA-MB-231 (PTEN+) but not SUM149 (PTEN−) cells. Cells were seeded in 96 well plates and fixed with 4% formaldehyde and counted at 72 hours. Data were normalized to control and are presented as mean+SD. *p<0.05 using Student's ttest, n=3; and FIG. 5D presents BTK-C increases glucose uptake in MDA-MB-231 (PTEN+) but not SUM149 (PTEN−) cells. Cells were seeded and treated with 100 μM 2-NBDG for 15 min. Fluorescence images were acquired with an InCell 2200 and overall fluorescence intensity quantified. […]
# (§3) Embodiment disclosed herein included the following materials and methods: Cell lines MD-AMB-231, BT549, SUM149, SKBr3 and ϕNX-AMPHO were obtained from the American Type Culture Collection (ATCC). […] In growth and uptake experiments, differences between control and treatment conditions were evaluated using Student's t test for pairwise comparisons. […]
# BTK-A [4] = experiment: Activating tyrosine phosphorylation of BTK-A after insulin stimulation (immunoblot densitometry); format: cell-based, human; conditions: transfected HEK293 cells
# Method: as §2, §3
# BTK-A [5] = biological target: T2, BTK-A (Homo sapiens, UniProt Q06187); experiment: Acyl incorporation assay (click chemistry after Flag immunoprecipitation), BTK-A; format: cell-based; conditions: HEK293 cells co-expressing zDHHC5, 100 μM analogue for 4 h
# T2 construct: cells expressing Flag-tagged, full-length versions of BTK-A and BTK-C; expressed in transfected cells; host or cells: HEK293
# T2 sequence (Q06187 whole entry): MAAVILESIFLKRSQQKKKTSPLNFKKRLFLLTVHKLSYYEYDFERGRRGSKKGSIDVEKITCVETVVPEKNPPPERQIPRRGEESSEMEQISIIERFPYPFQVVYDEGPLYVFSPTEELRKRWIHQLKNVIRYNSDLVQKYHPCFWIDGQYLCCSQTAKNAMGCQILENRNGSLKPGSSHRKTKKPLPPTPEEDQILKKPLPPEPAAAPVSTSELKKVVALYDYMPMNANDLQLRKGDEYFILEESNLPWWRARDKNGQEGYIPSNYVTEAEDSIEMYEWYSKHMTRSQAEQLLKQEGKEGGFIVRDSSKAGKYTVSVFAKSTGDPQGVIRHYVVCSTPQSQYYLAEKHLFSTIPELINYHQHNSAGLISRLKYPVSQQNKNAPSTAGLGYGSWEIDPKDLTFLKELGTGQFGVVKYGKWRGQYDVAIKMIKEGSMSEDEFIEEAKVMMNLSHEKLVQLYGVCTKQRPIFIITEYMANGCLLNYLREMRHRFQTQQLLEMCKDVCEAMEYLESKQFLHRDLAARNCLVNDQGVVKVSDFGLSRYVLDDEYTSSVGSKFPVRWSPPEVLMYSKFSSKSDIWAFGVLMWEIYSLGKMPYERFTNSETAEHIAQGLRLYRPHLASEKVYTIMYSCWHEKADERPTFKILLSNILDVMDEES
# Method: as §1
# Reporter construction and viral transgenesis: GFP fusion constructs were generated using a BTK pleckstrin homology domain fusion protein vector, PH-Btk-GFP (Addgene Plasmid #51463). BTK constructs (BTK-A R28C; BTK-C; BTK-C R28C; BTK-C C13A, C16A; BTK-C C13A,C16A,R28C) were generated in this plasmid using QuikChange site directed mutagenesis. The exon 1C sequence (FIG. 1B) was subcloned from the original cDNA isolate. […]
# [6] = insulin stimulation under reduced serum conditions
molecule,measurement,setting,value
CCCCC/C=C\C/C=C\C/C=C\C/C=C\CCCC(=O)O [arachidonic acid],incorporation of acyl analogue label into BTK-C,BTK-C [1],failed to observe incorporation
"C[C@H](Nc1ncnc2[nH]cnc12)c1cc2cccc(Cl)c2c(=O)n1-c1ccccc1 [IPI-145, Duvelisib]",toxicity,breast cells,significant toxicity
same,toxicity,[2],less toxicity
"EGF: ligand used for stimulation of BTK activation (NSDSECPLSHDGYCLHDGVCMYIEALDKYACNCVVGYIGERCQYRDLKWWELR; UniProt P01133 971-1023, looked up)",increase of activating phosphorylation levels above unstimulated levels,BTK-A and BTK-C,only modestly
CCCCCCCC/C=C\CCCCCCCC(=O)O [oleic acid],incorporation of acyl analogue label into BTK-C,BTK-C [1],failed to observe incorporation
CCCCCC/C=C\CCCCCCCC(=O)O [palmitoleic acid],incorporation of acyl analogue label into BTK-C,BTK-C [1],failed to observe incorporation
Insulin: common activator of PI3K in cancer cells,transactivation (phosphorylation of BTK by its dimerized partner) of BTK-C,BTK-C [3]; insulin stimulation (FIG. 5A),largely unchanged
same,increase of Y551 phosphorylation of BTK-C,BTK-C [3]; [6],~24%
same,transactivation (phosphorylation of BTK by its dimerized partner) of BTK-A,BTK-A [4]; insulin stimulation (FIG. 5A),largely unchanged
same,increase of Y551 phosphorylation of BTK-A,BTK-A [4]; [6],two-fold
"C#CCCCCCCCCCCCCCCCC(=O)O [17-ODYA, 17-octadecynoic acid]",incorporation of acyl analogue label into BTK-C,BTK-C [1],label is increased
same,incorporation of acyl analogue label into BTK-A,BTK-A [5],not
